Results reported in patent publication US6525059B1, “Substituted pyrazoles as p38 kinase inhibitors” (G. D. Searle & Company, priority 1998, dated 2003).
pIC50: −log10 of the molar value. Structures can show the parent of a compound that is named as a salt. Where two headings read alike, the source gives them in different places.

Assays:
human TNF = test: TNF inhibition: human whole blood assay; type: cell-based; settings: Homo sapiens; for IC50: read-out: Human Whole Blood IC50, μM
Experimental: Human peripheral blood is obtained in heparinized tubes. A 190 μL aliquot of blood is placed in each well of a 96 well u-bottom plate. […] After one hour of incubation at 37° C., […] of lipopolysaccharide (Salmonella typhosa, Sigma) in phosphate buffered saline is added resulting in a final concentration of […]. After four to five hours of incubation at 37° C., the supernatants are harvested and assayed at 1:10 or 1:20 dilutions for human TNF using ELISA.

TNF-α = test: Rat assay: LPS-challenged rats, serum TNF-α by ELISA; type: in vivo; settings: for ratLPS/% Inh @20.0 (mg/kg): 20.0 mg/kg oral gavage; for inhibition in vivo at 1 mg/kg: 1.0 mg/kg oral gavage, read-out: ratLPS/% Inh @1.0 (mg/kg)
human p38 kinase alpha = target: T1, human p38 kinase alpha (Homo sapiens, UniProt Q16539); test: p38 kinase in vitro assay, phosphorylation of biotinylated PHAS-I with gamma 32P-ATP; type: biochemical
T1 construct: The coding region of the human p38a cDNA was obtained by PCR-amplification from RNA isolated from the human monocyte cell line THP.1; GST (N); made in house; host or cells: E. coli DH10B
Method in brief: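 Radiometric filter-capture read-out: streptavidin plates trap biotin-PHAS-I labelled by activated (MKK6) human p38α from γ-32P-ATP. Buffer 25 mM HEPES pH 7.5, 10 mM magnesium acetate, 50 μM cold ATP; reactions 1 h or overnight at 30 °C; inhibitors 10-fold dilutions 100 to 0.001 μM, triplicates, 1% DMSO.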

[1] = Rattus norvegicus, po, read-out: Rat LPS Model % Inhibition @ dose @ predose time
[2] = read-out: P38 alpha kinase IC50
[3] = TNF production, LPS-stimulated human whole blood, read-out: Human Whole Blood IC50
[4] = Rattus norvegicus, po, 5 mpk oral gavage, 4 h before LPS challenge, read-out: Rat LPS Model % Inhibition @ dose @ predose time
[5] = TNF production, LPS-stimulated human whole blood, read-out: HWB IC50
[6] = Rattus norvegicus, po, 4 hours before LPS challenge
[7] = Rattus norvegicus, po, 5.0 mg/kg oral gavage, 4 hours before LPS challenge, read-out: ratLPS/% Inh @5.0 (mg/kg)

T1 sequence (Q16539 whole entry): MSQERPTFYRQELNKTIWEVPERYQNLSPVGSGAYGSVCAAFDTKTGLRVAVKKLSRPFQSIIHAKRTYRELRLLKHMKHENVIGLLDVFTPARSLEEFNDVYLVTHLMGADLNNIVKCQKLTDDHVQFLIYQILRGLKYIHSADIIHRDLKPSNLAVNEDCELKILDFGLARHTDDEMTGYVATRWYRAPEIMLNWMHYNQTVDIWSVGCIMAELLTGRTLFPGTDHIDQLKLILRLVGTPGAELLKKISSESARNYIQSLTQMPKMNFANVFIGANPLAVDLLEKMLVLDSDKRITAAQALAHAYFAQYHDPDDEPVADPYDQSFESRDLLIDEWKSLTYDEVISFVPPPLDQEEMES

Compound | pIC50 (human p38 kinase alpha; [2]) | pIC50 (human TNF; [3]) | inhibition in vivo at 5 mg/kg (TNF-α; [4]) [%] | other results
CC(C)(N)C(=O)NCc1[nH]nc(-c2ccc(F)cc2)c1-c1ccncc1 [Example C-120] | 6.15 | – | – | IC50 (human TNF): 18.6 µM; inhibition in vivo at 5 mg/kg (TNF-α; [1]): 26%
FC(F)(F)c1ccc(-c2n[nH]c(C3CCNCC3)c2-c2ccncc2)cc1 [Example C-83] | 6.62 | 5.91 | 25 | –
C[C@H](O)C(=O)N1CCC(c2[nH]nc(-c3ccc(Cl)cc3)c2-c2ccncn2)CC1 [Example D-5, hydrochloride] | – | – | – | pIC50 (human TNF; [5]): 5.39; ratLPS/% Inh @20.0 (mg/kg) (TNF-α; 4 hours before LPS challenge): 83.0%; inhibition in vivo at 1 mg/kg (TNF-α; [6]): 65%; inhibition in vivo at 5 mg/kg (TNF-α; [7]): 78.5%; pIC50 (human p38 kinase alpha; read-out: p38 alpha IC50): 6.85
C[C@@H](O)C(=O)N1CCC(c2[nH]nc(-c3ccc(Cl)cc3)c2-c2ccncn2)CC1 [Example D-6, hydrochloride] | – | – | – | pIC50 (human TNF; [5]): 5.88; ratLPS/% Inh @20.0 (mg/kg) (TNF-α; 4 hours before LPS challenge): 100%; inhibition in vivo at 1 mg/kg (TNF-α; [6]): 82%; inhibition in vivo at 5 mg/kg (TNF-α; [7]): 96%; pIC50 (human p38 kinase alpha; read-out: p38 alpha IC50): 7.08
CN1CCC(c2[nH]nc(-c3ccc(Cl)cc3)c2-c2ccncc2)CC1 [Example C-75] | 7.35 | 6.40 | 71 | –
CS(=O)(=O)N1CCC(c2[nH]nc(-c3ccc(F)cc3)c2-c2ccncc2)CC1 [Example C-111] | 6.68 | 5.22 | 39 | –
CN1CCC(c2[nH]nc(-c3cccc(Cl)c3)c2-c2ccncc2)CC1 [Example C-89] | 7.41 | 6.92 | 27 | –
CN(C)[C@H]1CC[C@@H](c2[nH]nc(-c3cccc(Cl)c3)c2-c2ccncc2)CC1 [Example C-106, 5-cis-(4-N,N-DIMETHYLAMINOCYCLOHEXYL)-4-(4-PYRIDYL)-3-(3-CHLOROPHENYL)PYRAZOLE] | 7.59 | 6.36 | 23 | –
COCC(=O)N1CCCC(c2[nH]nc(-c3ccc(F)cc3)c2-c2ccncc2)C1 (centres unmarked) [Example C-139] | 6.70 | 5.44 | 46 | –
COCC(=O)N1CCC(c2[nH]nc(-c3ccc(Cl)cc3)c2-c2ccncn2)CC1 [Example D-3, N-(2-Methoxyacetyl)-5-(4-piperidyl)-4-(4-pyrimidyl)-3-(4-chlorophenyl)pyrazole (fumarate salt)] | – | – | – | pIC50 (human TNF; [5]): 6.34; ratLPS/% Inh @20.0 (mg/kg) (TNF-α; 4 hours before LPS challenge): 91.0%; inhibition in vivo at 1 mg/kg (TNF-α; [6]): 69%; inhibition in vivo at 5 mg/kg (TNF-α; [7]): 88%; pIC50 (human p38 kinase alpha; read-out: p38 alpha IC50): 7.02
CC(=O)Nc1ccc(Cc2[nH]nc(-c3ccc(Cl)cc3)c2-c2ccncc2)cc1 [Example C-118, 5-[4-(N-ACETYL)AMINOBENZYL]-4-(4-PYRIDYL)-3-(4-CHLOROPHENYL)PYRAZOLE] | 6.53 | < 4.60 | 39 | –
CN1CCC(c2[nH]nc(-c3ccc(C(F)(F)F)cc3)c2-c2ccncc2)CC1 [Example C-84, 5-(N-METHYL-4-(4-PYRIDYL)-4-(4-PYRIDYL)-3-[4-(TRIFLUOROMETHYL)PHENYL]PYRAZOLE] | 7.32 | 6.06 | 22 | –
CS(=O)(=O)N1CCC(c2[nH]nc(-c3ccc(Cl)cc3)c2-c2ccncc2)CC1 [Example C-78] | 7.17 | 4.98 | 87 | –
O=C(CO)N1CCC(c2[nH]nc(-c3cccc(F)c3)c2-c2ccncn2)CC1 [Example D-12, N4(2Hydroxyacetyl)-5-(4-piperidyl)-4-(4-pyrimidyl)-3-(3-fluorophenyl)pyrazole] | – | – | – | pIC50 (human TNF; [5]): 5.15; inhibition in vivo at 1 mg/kg (TNF-α; [6]): 71%; inhibition in vivo at 5 mg/kg (TNF-α; [7]): 91%; pIC50 (human p38 kinase alpha; read-out: p38 alpha IC50): 6.09
CN1CCC[C@@H](c2[nH]nc(-c3ccc(F)cc3)c2-c2ccncc2)C1 [Example C-128] | 7.05 | 5.65 | 63 | –
Clc1cccc(-c2n[nH]c(C3CCNCC3)c2-c2ccncc2)c1 [Example C-88] | 7.92 | 6.52 | 59 | –
N[C@H]1CC[C@@H](c2[nH]nc(-c3ccc(F)cc3)c2-c2ccncc2)CC1 [Example C-98, 5-cis-(4-AMINOCYCLOHEXYL-4-(4-PYRIDYL)-3-(4-FLUOROPHENYL)PYRAZOLE] | 7.80 | 6.19 | 78 | –

Compound | pIC50 (human p38 kinase alpha; [2]) | pIC50 (human TNF; [3]) | inhibition in vivo at 5 mg/kg (TNF-α; [4]) [%] | other results
COCc1[nH]nc(-c2ccc(Cl)cc2)c1-c1ccncc1 [Example C-115, 5-(METHOXYMETHYL)-4-(4-PYRIDYL)-3-(4-CHLOROPHENYL)PYRAZOLE] | 7.38 | 4.99 | 39 | –
CC(=N)N1CCC(c2[nH]nc(-c3ccc(F)cc3)c2-c2ccncc2)CC1 [Example C-107] | – | – | – | IC50 (human TNF): 0.38 µM; inhibition in vivo at 5 mg/kg (TNF-α; [1]): 11%; IC50 (human p38 kinase alpha; P38 alpha kinase IC50, μM): 0.014 µM
CC(C)(O)CCCc1[nH]nc(-c2ccc(F)cc2)c1-c1ccncc1 [Example C-133] | 6.80 | 5.34 | 55 | –
CN(C)[C@H]1CC[C@@H](c2[nH]nc(-c3ccc(Cl)cc3)c2-c2ccncc2)CC1 [Example C-93, 5-cis-(4-N,N-DIMETHYLAMINOCYCLOHEXYL)-4-(4-PYRIDYL)-3-(4-CHLOROPHENYL)PYRAZOLE] | 8.05 | 6.42 | 50 | –
COCC(=O)N1CCC(c2[nH]nc(-c3ccc(F)cc3)c2-c2ccncc2)CC1 [Example C-112] | 6.27 | 5.20 | 89 | –
N[C@H]1CC[C@@H](c2[nH]nc(-c3ccc(Cl)cc3)c2-c2ccncc2)CC1 [Example C-92, 5-cis-(4-AMINOCYCLOHEXYL)-4-(4-PYRIDYL)-3-(4-CHLOROPHENYL)PYRAZOLE] | 7.62 | 6.55 | 66 | –
CC(C)N[C@H]1CC[C@@H](c2[nH]nc(-c3ccc(Cl)cc3)c2-c2ccncc2)CC1 [Example C-94, 5-[cis-4-N-(2-PROPYL)AMINOCYCLOHEXYL]-4-(4-PYRIDYL)-3-(4-CHLOROPHENYL)PYRAZOLE] | 7.70 | 6.57 | 73 | –
CC(C)N[C@H]1CC[C@@H](c2[nH]nc(-c3ccc(F)cc3)c2-c2ccncc2)CC1 [Example C-100, 5-cis-[4-N-(2-PROPYL)AMINOCYCLOHEXYL]-4-(4-PYRIDYL)-3-(4-FLUOROPHENYL)PYRAZOLE] | 7.57 | 6.57 | 44 | –
CN1CCCC(c2[nH]nc(-c3ccc(F)cc3)c2-c2ccncc2)C1 (centres unmarked) [Example C-91] | 7.27 | 5.64 | 63 | –
O=C(CO)N1CCC(c2[nH]nc(-c3ccc(C(F)(F)F)cc3)c2-c2ccncn2)CC1 [Example D-9] | – | – | – | pIC50 (human TNF; [5]): 4.80; inhibition in vivo at 1 mg/kg (TNF-α; [6]): 5%; inhibition in vivo at 5 mg/kg (TNF-α; [7]): 86%; pIC50 (human p38 kinase alpha; read-out: p38 alpha IC50): 5.79
CN(C)c1ccc(Cc2[nH]nc(-c3ccc(Cl)cc3)c2-c2ccncc2)cc1 [Example C-117] | 5.47 | 5.14 | 71 | –
CN1CCC[C@H]1c1[nH]nc(-c2ccc(F)cc2)c1-c1ccncc1 [Example C-124, (S)-5-(N-METHYL-2-PYROLIDINYL)-4-(4-PYRIDYL)-3-(4-FLUOROPHENYL)PYRAZOLE] | 6.77 | 5.34 | 51 | –
O=C([C@H](O)c1ccccc1)N1CCC(c2[nH]nc(-c3ccc(Cl)cc3)c2-c2ccncn2)CC1 [Example D-7, (R)-N-(2-Hydroxy-2-phenylacetyl)-5-(4-piperidyl)-4-(4-pyrimidyl)-3-(4-chlorophenyl)pyrazole] | – | – | – | pIC50 (human TNF; [5]): < 4.60; inhibition in vivo at 5 mg/kg (TNF-α; [7]): 0%; pIC50 (human p38 kinase alpha; read-out: p38 alpha IC50): 6.36
OC[C@@H](Cc1ccccc1)Nc1cc(-c2c[nH]nc2-c2ccc(F)cc2)ccn1 [Example A-361, (βR)-β-[[4-[3-(4-fluorophenyl)-1H-pyrazol-4-yl]-2-pyridinyl]amino]benzene propanol] | – | – | – | pIC50 (human TNF; Table 9, human whole blood, LPS, read-out: TNF Inhibition-Human Whole Blood Assay): 6.00; inhibition in vivo at 20 mg/kg (TNF-α; Rattus norvegicus, po, Table 9, dose 20 mg/kg): 9%
CS(=O)(=O)N[C@H]1CC[C@@H](c2[nH]nc(-c3ccc(Cl)cc3)c2-c2ccncc2)CC1 [Example C-97, 5-cis-[4-N-(METHYLSULFONYL)AMINOCYCLOHEXYL]-4-(4-PYRIDYL)-3-(4-CHLOROPHENYL)PYRAZOLE] | 7.60 | 5.42 | 21 | –
COC(=O)N1CCN(c2[nH]nc(-c3ccc(Cl)cc3)c2-c2ccncc2)CC1 [Example A-319, methyl 4-[5-(4-chlorophenyl)-4-(4-pyridinyl)-1H-pyrazol-3-yl]-1-piperazinecarboxylate, monohydrate] | – | – | – | pIC50 (human TNF; Table 8, human whole blood, LPS, read-out: TNF Inhibition-Human Whole Blood Assay): < 4.60; inhibition in vivo at 3 mg/kg (TNF-α; Rattus norvegicus, po, Table 8, dose 3.0 mg/kg, read-out: Rat LPS Assay % Inhibition): 62%
COCC(=O)NC1CCC(c2[nH]nc(-c3ccc(Cl)cc3)c2-c2ccncc2)CC1 (stereo not drawn) [Example C-96, 5-cis-[4-N-(METHOXYACETYL)AMINOCYCLOHEXYL]-4-(4-PYRIDYL)-3-(4-CHLOROPHENYL)PYRAZOLE] | – | 5.68 | 38 | –
